Where two headings read alike, the source gives them in different places.
Experiments:
pMLKL = test: Fluorescence microscopy of pMLKL plasma membrane translocation in ARPE-19 monolayers; format: cell-based, Human; conditions: ARPE-19 with A2E or ATRD
Source text: Chronic accumulation of polymeric pMLKL could account for progressive damage in pigmented retinas as they amass LF.

ARPE-19 cells = tested on: ARPE-19 cells
Method: Cell Viability Assay. […] 1× AlamarBlue solution prepared in OptiMEM was used to replace the media supernatant and the plate's fluorescence was determined at 555 nm excitation/585 nm emission with a SpectraMax M (Molecular Devices, CA, USA), after 1 h. […] The exact timing of appearance of far-red (DRAQ7=plasma membrane leakage) and blue (NUC405=caspase 3 activation) fluorescence signals was critical to differentiate apoptosis and necrosis from secondary events, such as membrane damage and generalized proteolytic activation during the late phase of apoptosis and necrosis, respectively.
Real time monitoring of necrotic and apoptotic cell-death. Cell-death assay to study Lipofuscin's dark toxicity was performed. 90% confluent ARPE-19 or hfRPE were incubated overnight in serum free media supplemented with indicated LB concentration. Viability was assessed at 24 hrs by AlamarBlue®, or microscopy with NUC405/DRAQ7. Real time monitoring of necrotic (red) and apoptotic (blue) cell-death was performed by automated fluorescence microscopy. The exact timing of appearance of far-red (DRAQ7=plasma membrane leakage) and blue (NUC405=caspase 3 activation) fluorescence signals was critical to differentiate apoptosis and necrosis from secondary events, such as membrane damage and generalized proteolytic activation during the late phase of apoptosis and necrosis, respectively.
Chemical inhibitors. Chemical inhibitors used in this study are described in FIG. 12.

hfRPE = test: Light-independent lipofuscin cell-death/viability assay in hfRPE; format: cell-based, Human
Method: Cell culture. Human retinal pigment epithelium (ARPE-19) cells were obtained from ATCC and were cultured in Dulbecco's modified Eagle's medium (DMEM) supplemented with 10% FBS and 1% penicillin/streptomycin. Cells were kept in an incubator with 5% C02 and 95% humidified air at 37° C. Human fetal RPE (hfRPE) cells from donors at 16 to 18 weeks gestation were cultured at 37° C., 5% C02 in RPE medium. To grow polarized hfRPE cells, the cells were seeded in 12 well transwell plate in 1% RPE medium with Rock kinase inhibitor for the first week. After the first week, cells were cultured in normal 1% RPE medium for 3 weeks. Cells were used in passage 1.
Real time monitoring of necrotic and apoptotic cell-death.

phospho-MLKL = test: Intravitreal treatment of DKO mice, phospho-MLKL immunostaining of retina; format: in vivo, ABCA4−/− RDH8−/− double knock-out mice (DKO)
Method: Animals. Pigmented ABCA4^−/− RDH8^−/− double knock-out mice (DKO), free of rd8 mutation, were purchased from Jackson laboratories and every 10 generations were in house backcrossed to the C57BL6J control strain, to prevent genetic drifts. Genotyping was performed at Transnetyx (Memphis, TN). Only mice with ABCA4, RDH8, RPE65-Leu450 but no crb1 mutations (retinal degeneration slow) were maintained in the colony. Controls C57BL/6J (Rpe65-Leu450, crb1negative) were also Jackson's lab. All mice were housed at Weill Cornell Medicine's animal facility under a 12 h light (˜10 lux)/12 h dark cycle environment or under complete darkness. Experimental manipulations in the dark were done under dim red light transmitted through a Kodak No. 1 safelight filter (transmittance >560 nm). No retinal degeneration or necroptosis markers were appreciably detected in 20 months or older C57BL6/N (Rpe65-Met450, crb1 positive) obtained from the NAI/NIH. All animal procedures and experiments were approved by the Animal Care and Use Committee of Weill Cornell Medical College in agreement with the guidelines established by the NIH Office of Laboratory Animal Welfare and the Association of Research for Vision and Ophthalmology (ARVO) statement for the use of animals in ophthalmic research.
RPE and Neural retina flat mounts. Mouse eyes were enucleated and placed in 4% PFA in PBS for 1 h at room temperature. After fixing, a 23G needle was used to make a hole at the limbus area and iris scissors used to cut around the circumference of the limbus, remove the cornea, iris and lens, separate the neuronal retina and sclera by micro-forceps. Neuronal retina and RPE layer were dissected out and incubated with blocking buffer (1% BSA and 0.3% Triton-X-100 in PBS) for at least 20 min. Primary antibodies were added to the blocking buffer and kept at 4° C. overnight. Retina and RPE layer were washed and incubated with secondary antibodies for at least 30 min at room temperature, then washed with PBS three times. Under the dissection microscope, retina or RPE layer was cut into a four-leaf clover shape and mount on the slides in mount medium (EMS glycerol mounting medium with DAPI and DABCO, cat. No. 17989-61). Slides were stored at 4° C. until imaging.
Cryosections and Immunofluorescence staining. Mouse eyes were fixed with 4% PFA and penetrated with 30% sucrose overnight at 4° C., then cryopreserved in Tissue-Tek OCT compound (Sakura Finetek, Torrance, CA, USA) and cut into 15 μm sections. Sections were blocked with 1% BSA and 0.1% Triton-X-100 PBS, and then immunofluorescence staining was performed using standard methods and the appropriate dilutions of primary antibodies against p- p-MLKL (cell signaling), XBP1s (Biogend), Iba-1 (Abcam), CD11b (Millipore), Lamp2 (hybridoma bank), CellRox and DRAQ7 (Invitrogen), Rhodopsin (Abcam), phalloidin-CF660 (Biotium, cat.no. 0052), Hoechst33324, caspase3 (clone9664, Cell signaling). Subsequently, slides were incubated with Alexa-647, Alexa-594 secondary antibodies, and counterstained with Hoechst33324. Negative controls were included in each staining, and slides were mounted with anti-fade mount medium. Slides were stored at 4° C. before analysis on SD microscope using Zen software. For paraffin sections, mouse eyes were embedded in paraffin and cut into 5-μm sections. […]
Pharmacological treatment of mice. […] The exact volume of Mock reagent or Kira6 was determined by 10 μl Hamilton syringe. […]

Structure (SMILES) | effect on LF-induced pMLKL plasma membrane localization (pMLKL) | protection against light-independent LF (A2E/ATRD) cytotoxicity, RPE survival (ARPE-19 cells) | survival to LF in hfRPE (hfRPE) | necroptosis, intracellular and plasma membrane pMLKL labelling in RPE flat mounts (phospho-MLKL; 26 month old DKO mice, intraocular, a week later) | pMLKL/XBP1s double positive cells (RPE and microglia) (phospho-MLKL; demelanized paraffin cross-sections, 20 month old DKOs, control 33%) [%] | protection against light-independent LF (A2E/ATRD) cytotoxicity, RPE survival (ARPE-19 cells; ARPE-19, inhibitor pretreatment, A2E/ATRD 24 h, no light, AlamarBlue) | protection against light-independent LF (A2E/ATRD) cytotoxicity, RPE survival (ARPE-19 cells; ARPE-19, inhibitor pretreatment, A2E/ATRD 24 h, no light, AlamarBlue, listed as Nec-7) | membrane and cytosolic pMLKL labeling in RPE flat mounts (phospho-MLKL; 12 month old DKOs, single intraocular injection, analyzed one week later) | membrane and cytosolic phospho-MLKL staining in RPE flat mounts (phospho-MLKL; 26-month-old DKO mice, 2 μl intraocular, a week later) | phospho-MLKL (necroptosis) labeling in neuroretina-flat mounts (phospho-MLKL; DKO mice, intraocular, 1 week earlier)
CC(C)(C)c1nc(-c2ccc(NC(=O)Nc3cccc(C(F)(F)F)c3)c3ccccc23)c2c(N)nccn12 [KIRA6] | inhibition of pMLKL plasma membrane translocation | sufficient to protect against necroptosis by LF | promote survival to LF | abrogated necroptosis | 4 | – | – | – | – | –
N=C1S/C(=C\c2cn[nH]c2-c2ccc(F)cc2)C(=O)N1c1nccs1 [Nec7, Necrostatin 7] | effectively reverted the pMLKL membrane localization pattern | – | promote survival to LF | – | – | highly protective | protects against necroptosis by lipofuscin | reduced to undetectable levels | reduced membrane and cytosolic phospho-MLKL staining to undetectable levels | significantly reduced
